According to US10800765B2, “Indole derivative used as CRTH2 inhibitor” (CHIA TAI TIANQING PHARMACEUTICAL GROUP CO., LTD., priority 2016, dated 2020):

Molecular target: CRTH2 receptor (Homo sapiens (Human), UniProt Q9Y5Y4)
Test: PathHunter CHO-K1 CRTH2 β-arrestin antagonist assay (PGD2 agonist)
Format: cell-based
Conditions: PathHunter CHO-K1 CRTH2 β-arrestin cells; 30 min compound pre-incubation, then EC80 PGD2 for 90 min; chemiluminescence
Protocol: PathHunter® CHO-K1 CRTH2 β-arrestin cells (DiscoverX, catalogue number 93-0291C2) grew under standard conditions, and were inoculated into a white-wall 384-well microplate at a density of 5,000 cells/well. 20 μL of Cell Plating Reagent 1 was used in each well. Before the test, the cells were incubated overnight at 37° C./5% CO2. A test compound was serially diluted in DMSO with a dilution factor of 3-fold to give 8 concentrations of the test compound. Shortly before the test, the serially diluted test compound was further diluted with the test buffer to 5 times of the test concentration. 5 μL of the further diluted test compound was added to the cells, and the cells were incubated for 30 min at 37° C. The concentration of the solvent was 1%. 5 μL of 6×EC80 agonist (PGD2) buffer was added to the cells, and the cells were incubated for 90 min at 37° C. Measured signals were generated by one-time addition of 15 μL (50% v/v) of PathHunter detection mixture reagent and subsequent one-hour incubation. The microplate was read through the chemiluminescent signals of PerkinElmer Envision™ reader. Biological activity of the test compound was analyzed by CBIS data analysis suite (ChemInnovation, CA), and was denoted as IC50 value.

Sequence of CRTH2 receptor (Q9Y5Y4 whole entry): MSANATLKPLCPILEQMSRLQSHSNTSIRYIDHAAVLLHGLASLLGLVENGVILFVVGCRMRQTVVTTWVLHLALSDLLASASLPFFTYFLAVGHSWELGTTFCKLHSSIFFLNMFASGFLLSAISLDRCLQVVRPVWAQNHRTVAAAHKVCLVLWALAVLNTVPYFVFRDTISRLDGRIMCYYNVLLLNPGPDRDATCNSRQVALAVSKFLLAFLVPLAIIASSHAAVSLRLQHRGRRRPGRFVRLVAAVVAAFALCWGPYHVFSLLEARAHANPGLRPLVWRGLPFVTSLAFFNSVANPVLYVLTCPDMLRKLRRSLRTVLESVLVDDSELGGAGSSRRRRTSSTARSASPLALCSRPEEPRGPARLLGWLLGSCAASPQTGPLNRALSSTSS

IC50 [nM] | Structure (SMILES)
100 to 1000 | Cc1c(C2=CS(=O)(=O)c3ccccc32)c2cc(Cl)ccc2n1CC(=O)O [Example 5]
< 100 | Cc1c(Cc2ccc3c(c2)N=CNS3(=O)=O)c2cc(F)ccc2n1CC(=O)O [Example 66]
100 to 1000 | Cc1c(Cc2cc3c(cc2C(F)(F)F)S(=O)(=O)N(C)CC3(F)F)c2cc(F)ccc2n1CC(=O)O [Example 64]
100 to 1000 | Cc1c(C2=CS(=O)(=O)c3cc(C(F)(F)F)ccc32)c2cc(Cl)ccc2n1CC(=O)O [Example 17]
100 to 1000 | Cc1c(Cc2ccc3c(c2)CCS3(=O)=O)c2cc([N+](=O)[O-])ccc2n1CC(=O)O [Example 57]
> 1000 | Cc1c(Cc2ccc3c(c2)CCS3(=O)=O)c2ccc(Cl)cc2n1CC(=O)O [Example 54]
100 to 1000 | Cc1c(Cc2cc3c(cc2C(F)(F)F)S(=O)(=O)CC3)c2cc(F)ccc2n1CC(=O)O [Example 61]
100 to 1000 | Cc1c(Cc2cc3c(cc2C(F)(F)F)S(=O)(=O)CCC3(F)F)c2cc(F)ccc2n1CC(=O)O [Example 63]
100 to 1000 | O=C(O)Cn1cc(Cc2ccc3c(c2)CCS3(=O)=O)c2cc(F)ccc21 [Example 60]
100 to 1000 | Cc1c(C2=CS(=O)(=O)c3ccc(Cl)cc32)c2cc(Cl)ccc2n1CC(=O)O [Example 34]
100 to 1000 | Cc1c(Cc2ccc3c(c2)C(F)(F)CCS3(=O)=O)c2ncccc2n1CC(=O)O [Example 80]
> 1000 | CC(=O)Nc1ccc2c(c1)c(Cc1ccc3c(c1)CCS3(=O)=O)c(C)n2CC(=O)O [Example 59]
100 to 1000 | Cc1c(Cc2ccc3c(c2)C=CS3(=O)=O)c2cc(F)ccc2n1CC(=O)O [Example 44]
< 100 | Cc1c(C2=CS(=O)(=O)c3cc(S(C)(=O)=O)ccc32)c2cc(F)ccc2n1CC(=O)O [Example 31]
100 to 1000 | Cc1c(Cc2cccc3c2CCS3(=O)=O)c2cc(F)ccc2n1CC(=O)O [Example 49]
100 to 1000 | Cc1c(C2=CS(=O)(=O)c3cc(C(F)(F)F)ccc32)c2ccc(F)cc2n1CC(=O)O [Example 20]
100 to 1000 | Cc1c(Cc2ccc3c(c2)C(F)C(F)(F)S3(=O)=O)c2cc(F)ccc2n1CC(=O)O (stereo not drawn) [Example 46]
100 to 1000 | Cc1c(C2=CS(=O)(=O)c3ccncc32)c2cc(F)ccc2n1CC(=O)O [Example 10]
100 to 1000 | Cc1ccc2c(c1)c(C1=CS(=O)(=O)c3ccc(C(F)(F)F)cc31)c(C)n2CC(=O)O [Example 15]
100 to 1000 | Cc1c(Cc2cccc3c2S(=O)(=O)CC3)c2cc(F)ccc2n1CC(=O)O [Example 75]

IC50 [nM] | Structure (SMILES)
< 100 | Cc1c(Cc2ccc3c(n2)C(F)(F)CCS3(=O)=O)c2cc(F)ccc2n1CC(=O)O [Example 65]
100 to 1000 | Cc1c(C2=CS(=O)(=O)c3ccc(Cl)cc32)c2ccc(C(F)(F)F)cc2n1CC(=O)O [Example 38]
100 to 1000 | Cc1c(Cc2ccc3c(c2)CCS3(=O)=O)c2ccccc2n1CC(=O)O [Example 50]
100 to 1000 | Cc1c(C2=CS(=O)(=O)c3ccccc32)c2ccc(F)cc2n1CC(=O)O [Example 3]
100 to 1000 | Cc1c(Cc2ccc3c(c2)CCS3(=O)=O)c2cc(Cl)ccc2n1CC(=O)O [Example 51]
100 to 1000 | Cc1c(C2=CS(=O)(=O)c3ccc(C(F)(F)F)cc32)c2ccc(F)cc2n1CC(=O)O [Example 16]
100 to 1000 | Cc1c(C2CS(=O)(=O)c3ccccc32)c2cc(F)ccc2n1CC(=O)O (stereo not drawn) [Example 2]
100 to 1000 | Cc1c(C2=CCCS(=O)(=O)c3ccccc32)c2cc(F)ccc2n1CC(=O)O [Example 9]
100 to 1000 | Cc1c(Cc2ccc3c(c2)N(C)S(=O)(=O)C=C3)c2cc(F)ccc2n1CC(=O)O [Example 48]
100 to 1000 | Cc1c(Cc2ccc3c(c2)CCS3(=O)=O)c2cc(Br)ccc2n1CC(=O)O [Example 55]
100 to 1000 | Cc1ccc2c(c1)c(C1=CS(=O)(=O)c3cc(C(F)(F)F)ccc31)c(C)n2CC(=O)O [Example 19]
100 to 1000 | Cc1c(C2=CS(=O)(=O)c3ccc(Cl)cc32)c2cc(F)ccc2n1CC(=O)O [Example 33]
100 to 1000 | Cc1c(Cc2ccc3c(c2)S(=O)(=O)CC3)c2cc(F)ccc2n1CC(=O)O [Example 74]
100 to 1000 | Cc1c(C2=CS(=O)(=O)c3cc(C(F)(F)F)ccc32)c2ccc(Cl)cc2n1CC(=O)O [Example 18]
100 to 1000 | Cc1c(C2=CS(=O)(=O)c3ncccc32)c2cc(F)ccc2n1CC(=O)O [Example 11]
100 to 1000 | Cc1c(C2=CS(=O)(=O)c3cc(-c4ccncc4)ccc32)c2cc(F)ccc2n1CC(=O)O [Example 21]
100 to 1000 | Cc1c(C(C)C2=CS(=O)(=O)c3ccccc32)c2cc(F)ccc2n1CC(=O)O (stereo not drawn) [Example 45]
100 to 1000 | Cc1c(Cc2cc3c(cc2F)S(=O)(=O)N(C)CC3(F)F)c2cc(F)ccc2n1CC(=O)O [Example 78]
100 to 1000 | Cc1ccc2c(c1)c(Cc1ccc3c(c1)CCS3(=O)=O)c(C)n2CC(=O)O [Example 52]

Structure (SMILES) | IC50 [nM]
Cc1c(Cc2ccc3c(c2)N(C)CN(C2CC2)S3(=O)=O)c2cc(F)ccc2n1CC(=O)O [Example 70] | < 100
Cc1c(Cc2ccc3c(c2)CCS3(=O)=O)c2cc(F)ccc2n1CC(=O)O [Example 43] | < 100
Cc1c(C2=CS(=O)(=O)c3ccc(C(F)(F)F)cc32)c2cc(F)ccc2n1CC(=O)O [Example 12] | 100 to 1000
